According to US20190351012A1, “TARGETING OF INTERFERON-STIMULATED GENE EXPRESSION TO TREAT INTERFERONOPATHIES” (New York University, priority 2018, published 2019):

Key:
[1] = test system: BRD4 recruitment sites; test: Global ChIP-Seq for BRD4 recruitment; assay type: cell-based, human; settings: combined IFN and TSA treatment
Protocol: To directly assess the effect of IFN and HDAC inhibition on BRD4 recruitment, we assayed the presence of BRD4 at ISG promoters by ChIP. BRD4 was recruited to three typical ISG promoters after 1 h of IFN stimulation. Importantly, this recruitment was abrogated by TSA, and, by JQ-1 (FIG. 5F). We also performed global ChIP-Seq for BRD4 recruitment.
ChIP-Seq libraries were made using the KAPA Hyper Prep kit (Roche, KK8504) using 25 ng of DNA per sample, according to the manufacturer's protocol for end repair and A-tailing. For adapter ligation, 8-nt multiplexing IDT (Integrated DNA Technologies) adapters (5 μM) were used. […] Libraries were sequenced on an Illumina HiSeq 4000 instrument, using a single read 50 protocol; 8 samples were pooled in one lane of a high output single read flow cell. […]
ChIP-Seq data analysis was carried out using the HiC-Bench pipeline (Lazaris et al., 2017, BMC Genomics 18:22). GenomicTools (Tsirigos et al., 2012, Bioinformatics 28:282-283), SAMtools (Li et al., 2009, Bioinformatics 25:2078-2079), DeepTools (Ramirez et al., 2016, Nucleic Acids Res. 44:W160-165), BEDTools (Quinlan and Hall, 2010, Bioinformatics 26:841-842), BigBed Tools (Kent et al., 2010, Bioinformatics 26:2204-2207), Picard Tools (https://broadinstitute.github.io/picard/), and R (https://www.R-project.org/) were used to analyze the sequenced reads and to check the quality of alignment. […]

[2] = test system: H3K4me3 at ISG54, ISG56 and 6-16 promoters; test: ChIP for H3K4me3 at ISG promoters in 2fTGH cells; assay type: cell-based, human; settings: co-treatment with IFN-α
Protocol: FIG. 3. […] (A) 2fTGH cells were either left untreated or treated with IFN-α in the absence or presence of TSA for the indicated time (min). ChIP assays were performed with antibodies against Pol II and recovered ISG56 promoter sequences were quantified by real-time PCR relative to input and represented as fold induction relative to untreated cells. (B) As in A, except that antibodies against phosphorylated Pol II at serine-5 in the CTD were used for immunoprecipitation, following 60 min IFN-α treatments. Recovered ISG54, ISG56 and ISG15 promoter sequences were quantified by real-time PCR relative to input and represented as fold induction relative to untreated cells. (C) As in A, except that cells were treated with IFN-α for 60 min and proximal, middle and distal fragments along the ISG54 gene (left panel) and ISG56 gene (right panel) were assayed. (D) As in A, except that antibodies against trimethylated lysine-4 on histone H3 were used. Promoter regions of ISG54, ISG56 and 6-16 genes were quantified by real-time PCR and reported as fold over the signal detected with a non-specific antibody.
Chromatin immunoprecipitation was performed as follows. […] Immunoprecipitated DNA sequences were recovered by alcohol precipitation and quantified by real-time PCR compared with input genomic DNA. […]

SMILES: CC(/C=C/C(=O)NO)=C\[C@@H](C)C(=O)c1ccc(N(C)C)cc1 [TSA, Trichostatin A]
- sites of IFN-dependent BRD4 recruitment (366 detected) abrogated [1]: all by 4 of which were abrogated
- level of H3K4me3 on ISG promoters [2]: neither IFN stimulation nor TSA co-treatment significantly affected
